The values below come from patent US6541477B2, “Inhibitors of p38-a kinase” (Scios, Inc., priority 1999, dated 2003).

pIC50: −log10 of the molar value.

In general, pIC50 refers to the IC50 on a negative log10 scale, so that one unit is a factor of ten. A lower pIC50 goes with a large IC50. For orientation: inhibition means the change of the read-out against control, counted positive when it falls.

In data set [1] the target is T1, p38-α kinase (Homo sapiens, UniProt Q16539). The data set can be described thus: biochemical. Conditions: for inhibition at 15 µM: read-out: % Inhibition of p38α kinase at 15 μM; for inhibition at 0.2 µM: read-out: percent inhibition of p38α at 200 nM.
Data set [2] is described as follows: Molar refraction (MR) of the ortho substituent as a measure of its size. The note with it: as described by Hansch, J Med Chem 1973. The format is physicochemical. As for the experimental part:
The molar refraction values for the ortho derivatives containing chloro, bromo and methoxy substituents were determined as a measure of the size of the substituent as described by Hansch, C. et al., J Med Chem (1973) 16:1207-1216. A linear correlation between the MR values and percent inhibition of p38α at 200 nM concentrations of the compounds was obtained. […] Thus, it appears that the ability to inhibit p38α kinase is dependent on the size of the ortho substituent. While not intending to be bound by any theory, applicants believe that the bulkier substituents rotate the aroyl moiety out of the plane of the piperidine or piperazine ring.

In data set [3] the target is T1, p38-α kinase. The note with it: 15 μM compound.

T1 sequence (Q16539 whole entry): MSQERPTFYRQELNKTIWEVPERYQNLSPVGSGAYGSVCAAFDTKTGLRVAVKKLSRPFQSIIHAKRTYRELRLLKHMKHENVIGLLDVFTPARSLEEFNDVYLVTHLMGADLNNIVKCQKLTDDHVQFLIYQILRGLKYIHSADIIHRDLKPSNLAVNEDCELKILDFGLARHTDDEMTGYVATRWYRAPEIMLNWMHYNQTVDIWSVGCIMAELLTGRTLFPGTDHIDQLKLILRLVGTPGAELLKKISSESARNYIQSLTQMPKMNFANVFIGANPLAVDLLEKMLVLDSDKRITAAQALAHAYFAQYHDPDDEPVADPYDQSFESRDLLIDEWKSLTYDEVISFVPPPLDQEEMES

In the case of `COc1ccc(C(=O)N2CCC(Cc3ccccc3)CC2)cc1` [compound 2, 1-(4-methoxybenzoyl)-4-benzyl piperidine], on p38-α kinase [1], the pIC50 was 6.22.

In turn, `COc1cccc(C(=O)N2CCC(Cc3ccccc3)CC2)c1` [compound 5, 1-(3-methoxybenzoyl)-4-benzyl piperidine] showed a pIC50 at p38-α kinase [1] of 5.96.

In the case of `O=C(c1ccccc1Cl)N1CCC(Cc2ccccc2)CC1` [compound 7, 1-(2-chlorobenzoyl)-4-benzyl piperidine], at p38-α kinase [1], the inhibition at 15 µM was 99% and the inhibition at 0.2 µM was determined as 52%. Besides, the “MR value (molar refraction)” value in data set [2] is given as “about 6”. For `O=C(c1ccccc1Br)N1CCC(Cc2ccccc2)CC1` [compound 8, 1-(2-bromobenzoyl)-4-benzyl piperidine], in that order: 99%, 72% and “approximately 9”. With `COc1ccccc1C(=O)N1CCC(Cc2ccccc2)CC1` [compound 10, 1-(2-methoxybenzoyl)-4-benzyl piperidine], the “MR value (molar refraction)” value in data set [2] is recorded as “about 8”. Regarding `Cc1ccccc1C(=O)N1CCC(Cc2ccccc2)CC1` [compound 11, 1-(2-methylbenzoyl)-4-benzyl piperidine], at p38-α kinase [1], the inhibition at 15 µM came to 98%.

In the case of `O=C(c1cccc(Br)c1)N1CCC(Cc2ccccc2)CC1` [meta-Br], at p38-α kinase [3], the “% Inhibition of p38α kinase at 15 μM” value is reported as 74%. Regarding `O=C(c1cccc(C(F)(F)F)c1)N1CCC(Cc2ccccc2)CC1` [meta-CF3], at p38-α kinase [3], the “% Inhibition of p38α kinase at 15 μM” value is 49%. As for `O=C(c1cccc(Cl)c1)N1CCC(Cc2ccccc2)CC1` [meta-Cl], the “% Inhibition of p38α kinase at 15 μM” value on p38-α kinase [3] was 80%. `O=C(c1cccc(F)c1)N1CCC(Cc2ccccc2)CC1` [meta-F]: the “% Inhibition of p38α kinase at 15 μM” value on p38-α kinase [3] worked out at 92%. Consider `Cc1cccc(C(=O)N2CCC(Cc3ccccc3)CC2)c1` [meta-methyl], for which the “% Inhibition of p38α kinase at 15 μM” value on p38-α kinase [3] is recorded as 90%.

For `O=C(c1ccccc1C(F)(F)F)N1CCC(Cc2ccccc2)CC1` [ortho-CF3], the “% Inhibition of p38α kinase at 15 μM” value on p38-α kinase [3] turned out to be 98%. `O=C(c1ccccc1F)N1CCC(Cc2ccccc2)CC1` [ortho-F]: at p38-α kinase [3], the “% Inhibition of p38α kinase at 15 μM” value amounted to 98%.

Consider `O=C(c1ccc(Br)cc1)N1CCC(Cc2ccccc2)CC1` [para-Br], for which the “% Inhibition of p38α kinase at 15 μM” value on p38-α kinase [3] is recorded as 96%. Turning to `O=C(c1ccc(C(F)(F)F)cc1)N1CCC(Cc2ccccc2)CC1` [para-CF3], the “% Inhibition of p38α kinase at 15 μM” value at p38-α kinase [3] stood at 66%. Still for that read-out and setting: the same measure for `O=C(c1ccc(Cl)cc1)N1CCC(Cc2ccccc2)CC1` [para-Cl]: 85%; for `O=C(c1ccc(F)cc1)N1CCC(Cc2ccccc2)CC1` [para-F]: 94%. On the same count and under the same terms, the same measure for `Cc1ccc(C(=O)N2CCC(Cc3ccccc3)CC2)cc1` [para-methyl]: 97%.
